Measurements published in patent US20100013377A1, “Compounds for use in Opto-Electrical Devices” (CDT OXFORD LIMITED, priority 2006, published 2010).

Settings: in all of xylene, toluene, chlorobenzene, chloroform or tetrahydrofuran
From the text: By “solubilizing substituent” we mean a substituent which renders the triazine sufficiently soluble in organic solvents that it can be solution processed to fabricate an opto-electrical device by, for example, ink-jet printing or spin-coating. […] Organic solvents suitable for opto-electrical device fabrication include xylene, toluene, chlorobenzene, chloroform or tetrahydrofuran but preferably toluene or xylene.

c1ccc(-c2ccc(-c3nc(-c4ccc(-c5ccccc5)cc4)nc(-c4ccc(-c5ccccc5)cc4)n3)cc2)cc1 [2,4,6-tris(biphenyl)-1,3,5-triazine]
solubility: < 5000 µg/mL
